Assay: Enhanced solubility of beta-cyclodextrin in water containing ClO2 (slurry test)
Format: physicochemical
Details: 100 g slurries of 5% beta-cyclodextrin (w/w) in 8000 ppm ClO2 vs ultrapure water, mixed at 200 rpm for 3 days, dried 2 days

OC[C@H]1O[C@@H]2O[C@H]3[C@H](O)[C@@H](O)[C@@H](O[C@H]4[C@H](O)[C@@H](O)[C@@H](O[C@H]5[C@H](O)[C@@H](O)[C@@H](O[C@H]6[C@H](O)[C@@H](O)[C@@H](O[C@H]7[C@H](O)[C@@H](O)[C@@H](O[C@H]8[C@H](O)[C@@H](O)[C@@H](O[C@H]1[C@H](O)[C@H]2O)O[C@@H]8CO)O[C@@H]7CO)O[C@@H]6CO)O[C@@H]5CO)O[C@@H]4CO)O[C@@H]3CO [beta-cyclodextrin]
weight of dried undissolved beta-cyclodextrin from the ClO2 containing slurry, less than the control slurry: 0.32 g
